Assay results published in ChEMBL document CHEMBL3351235, “β-amino-alcohol tethered 4-aminoquinoline-isatin conjugates: synthesis and antimalarial evaluation” (Eur J Med Chem, 2014).

Experiments:
[1] = tested on: Plasmodium falciparum; assay: Antimalarial activity against chloroquine-resistant ring stage Plasmodium falciparum W2 assessed as parasitemia after 48 hrs by flow cytometry; assay type: functional, organism-based; details: W2, 48 h
[2] = Cytotoxicity against human HCT116 cells at 2 uM after 48 hrs by MTT assay relative to untreated control; details: hct-116, 48 h
[3] = Cytotoxicity against human HCT116 cells at 20 uM after 48 hrs by MTT assay relative to untreated control; details: hct-116, 48 h
[4] = Cytotoxicity against human HCT116 cells at 0.2 uM after 48 hrs by MTT assay relative to untreated control; details: hct-116, 48 h

O=C1C(=O)N(CC(CO)NCCCNc2ccnc3cc(Cl)ccc23)c2ccc(F)cc21 (centres undefined)
IC50 [1]: 72.3 nM | INH [2]: 12% | INH [3]: 66% | INH [4]: -2%

O=C1C(=O)N(CC(CO)NCCCNc2ccnc3cc(Cl)ccc23)c2ccc(Cl)cc21 (centres undefined)
IC50 [1]: 13.5 nM | INH [2]: 2% | INH [3]: 46% | INH [4]: 0%

O=C1C(=O)N(CC(CO)N2CCN(c3ccnc4cc(Cl)ccc34)CC2)c2ccc(Cl)cc21 (centres undefined)
IC50 [1]: 1960 nM

O=C1C(=O)N(CC(CO)NCCNc2ccnc3cc(Cl)ccc23)c2ccc(Cl)cc21 (centres undefined)
IC50 [1]: 11.7 nM | INH [2]: -11% | INH [3]: 88% | INH [4]: 0%

Cc1ccc2c(c1)C(=O)C(=O)N2CC(CO)NCCCCCCNc1ccnc2cc(Cl)ccc12 (centres undefined)
IC50 [1]: 55.8 nM

O=C1C(=O)N(CC(CO)NCCCCCCNc2ccnc3cc(Cl)ccc23)c2ccc(Cl)cc21 (centres undefined)
IC50 [1]: 49.7 nM

O=C1C(=O)N(CC(CO)NCCCCCCNc2ccnc3cc(Cl)ccc23)c2ccccc21 (centres undefined)
IC50 [1]: 62.9 nM

O=C1C(=O)N(CC(CO)NCCNc2ccnc3cc(Cl)ccc23)c2ccccc21 (centres undefined)
IC50 [1]: 24.9 nM | INH [2]: 2% | INH [3]: 91% | INH [4]: 0%

Cc1ccc2c(c1)C(=O)C(=O)N2CC(CO)NCCCNc1ccnc2cc(Cl)ccc12 (centres undefined)
IC50 [1]: 302 nM

O=C1C(=O)N(CC(CO)NCCNc2ccnc3cc(Cl)ccc23)c2ccc(F)cc21 (centres undefined)
IC50 [1]: 488 nM

O=C1C(=O)N(CC(CO)NCCCNc2ccnc3cc(Cl)ccc23)c2ccccc21 (centres undefined)
IC50 [1]: 75.5 nM | INH [2]: -12% | INH [3]: 85% | INH [4]: 2%

O=C1C(=O)N(CC(CO)N2CCN(c3ccnc4cc(Cl)ccc34)CC2)c2ccccc21 (centres undefined)
IC50 [1]: 216 nM

O=C1C(=O)N(CC(CO)N2CCN(c3ccnc4cc(Cl)ccc34)CC2)c2ccc(F)cc21 (centres undefined)
IC50 [1]: 1850 nM

C[C@@H]1CC[C@H]2[C@@H](C)C(=O)O[C@@H]3O[C@@]4(C)CC[C@@H]1[C@]32OO4 [ARTEMISININ]
IC50 [1]: 4.37 nM

O=C1C(=O)N(CC(CO)NCCCCNc2ccnc3cc(Cl)ccc23)c2ccccc21 (centres undefined)
IC50 [1]: 48.7 nM | INH [2]: -5% | INH [3]: 37% | INH [4]: 0%

Cc1ccc2c(c1)C(=O)C(=O)N2CC(CO)N1CCN(c2ccnc3cc(Cl)ccc23)CC1 (centres undefined)
IC50 [1]: 1220 nM

O=C1C(=O)N(CC(CO)NCCCCNc2ccnc3cc(Cl)ccc23)c2ccc(Cl)cc21 (centres undefined)
IC50 [1]: 101 nM

O=C1C(=O)N(CC(CO)NCCCCNc2ccnc3cc(Cl)ccc23)c2ccc(F)cc21 (centres undefined)
IC50 [1]: 45.3 nM | INH [2]: 0% | INH [3]: 83% | INH [4]: -1%

COc1cccc2c1C(=O)c1c(O)c3c(c(O)c1C2=O)C[C@@](O)(C(=O)CO)C[C@@H]3O[C@H]1C[C@H](N)[C@H](O)[C@H](C)O1 [DOXORUBICIN]
INH [2]: 79% | INH [3]: 79% | INH [4]: 84%

Cc1ccc2c(c1)C(=O)C(=O)N2CC(CO)NCCCCNc1ccnc2cc(Cl)ccc12 (centres undefined)
IC50 [1]: 58 nM

O=C1C(=O)N(CC(CO)NCCCCCCNc2ccnc3cc(Cl)ccc23)c2ccc(F)cc21 (centres undefined)
IC50 [1]: 59.6 nM
